One assay addresses T1, DGAT1 enzyme (Homo sapiens, UniProt O75907).
T1 construct: made in house
T1 sequence (O75907 1-488): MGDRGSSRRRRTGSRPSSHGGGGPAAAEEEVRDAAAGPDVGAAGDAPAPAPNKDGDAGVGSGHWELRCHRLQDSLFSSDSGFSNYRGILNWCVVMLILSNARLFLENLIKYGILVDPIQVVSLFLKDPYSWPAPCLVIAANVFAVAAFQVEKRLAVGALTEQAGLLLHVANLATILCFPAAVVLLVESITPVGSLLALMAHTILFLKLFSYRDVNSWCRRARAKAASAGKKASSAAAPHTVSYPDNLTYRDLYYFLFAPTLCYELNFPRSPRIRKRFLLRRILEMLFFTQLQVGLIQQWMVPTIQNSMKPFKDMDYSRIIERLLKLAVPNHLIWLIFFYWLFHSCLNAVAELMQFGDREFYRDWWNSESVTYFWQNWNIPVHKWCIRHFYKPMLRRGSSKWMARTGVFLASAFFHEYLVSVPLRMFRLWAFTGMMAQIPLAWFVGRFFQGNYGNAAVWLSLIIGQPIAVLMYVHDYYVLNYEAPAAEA
The assay can be described thus: DGAT1 inhibitory activity test. Particulars: test compound concentration of 0.05 μg/ml; read-out: Inhibitory Rate. The format is biochemical. A digest of the protocol:
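Reaction at 23° C for 30 min in 175 mM Tris-HCl pH 8.0, 8 mM MgCl2, 1 mg/ml BSA, 0.5% Triton X-100 with 0.3 mM 1,2-dioleoyl-sn-glycerol and 10 μM [14C]-oleoyl-CoA. Triglyceride extracted into heptane, separated by TLC, radioactivity quantified; % inhibition versus vehicle control, 0-min background subtracted.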

In another assay the test system is Male C57BL/6N mice. The assay can be described thus: Triglyceride absorption suppression after fat loading (in vivo DGAT1 inhibitory effect). The conditions noted are these: Mus musculus, po; dose of 10 mg/kg or lower, orally administered, mice fasted overnight, plasma triglyceride after fat loading; read-out: Triglyceride absorption suppressive activity. As for the experimental part: The DGAT1 enzyme is important for the digestion and absorption of triglycerides, and the inhibition of DGAT1 in the small intestine suppresses the absorption of triglycerides. The in vivo activity of its DGAT1 inhibitory effect was evaluated with the suppressed absorption of triglycerides after fat loading as an index. Male C57BL/6N mice (7-12 weeks old, body weight: 17-25 g, Charles River Laboratories Japan Inc.) fasted overnight were assigned to Vehicle group 1, Vehicle group 2, and each test compound group, to which a vehicle (0.5% methylcellulose) or each test compound (1 to 10 mg/kg) suspended in vehicle was orally administered (5 mL/kg). After a given time, a lipoprotein lipase inhibitor (Pluronic-F127: Sigma-Aldrich Corp., 1 g/kg, 20% by weight dissolved in saline) was intraperitoneally administered (5 mL/kg) to each group. Immediately thereafter, distilled water for the Vehicle group 1 or a 20% fat-containing emulation (Intralipid 20%: TERUMO CORP., Japan) for the Vehicle group 2 and the compound groups were orally administered thereto (0.2 mL/mouse). After a given time of 1 to 4 hours after administration, blood was collected from the tail vein or the right ventricle, and plasma was immediately separated and collected. Then, the triglyceride concentration in plasma was measured using a commercially available kit (Triglyceride E-Test Wako: Wako Pure Chemical Industries, Ltd.). In this method, the administration of the lipoprotein lipase inhibitor suppresses the hydrolysis of triglycerides in the blood such that the triglycerides are accumulated in the blood. These triglycerides are derived from two origins: exogenous triglycerides absorbed in the gastrointestinal tract and endogenous triglycerides released from the liver. The triglyceride absorption suppressive activity of each test compound was calculated based on the equation shown below by removing the influence of the endogenous triglycerides. In this context, each test compound was separately confirmed to have no influence on the concentration of the endogenous triglycerides.
Triglyceride absorption suppressive activity (%)=100−[(Triglyceride concentration of each test compound group)−(Triglyceride concentration of Vehicle group 1)]/[(Triglyceride concentration of Vehicle group 2)−(Triglyceride concentration of Vehicle group 1)]×100

As to `CCOc1ccc(C)cc1NC(=O)Nc1ccc2c(c1)CCN(C(=O)O[C@H]1CC[C@H](CC(=O)O)CC1)C2` [Example 48, trans-6-[3-(2-ethoxy-5-methyl-phenyl)-ureido]-3,4-dihydro-1H-isoquinoline-2-carboxylic acid 4-carboxymethyl-cyclohexyl ester], the inhibition at 0.05 µg/mL at DGAT1 enzyme is no less than 50%. For the same molecule, in the assay with Male C57BL/6N mice, the inhibition in vivo at up to 10 mg/kg was no less than 60%.
Turning to `COc1cccc(NC(=O)Nc2ccc3c(c2)CCN(C(=O)O[C@H]2CC[C@H](CC(=O)O)CC2)C3)c1` [Example 49, trans-6-[3-(3-methoxy-phenyl)-ureido]-3,4-dihydro-1H-isoquinoline-2-carboxylic acid 4-carboxymethyl-cyclohexyl ester], the inhibition at 0.05 µg/mL on DGAT1 enzyme was no less than 50%. Moreover, the inhibition in vivo at up to 10 mg/kg with Male C57BL/6N mice is no less than 60%.
Regarding `O=C(O)C[C@H]1CC[C@H](OC(=O)N2CCc3cc(NC(=O)Nc4ccccc4)ccc3C2)CC1` [Example 50, trans-6-(3-phenyl-ureido)-3,4-dihydro-1H-isoquinoline-2-carboxylic acid 4-carboxymethyl-cyclohexyl ester], the inhibition at 0.05 µg/mL on DGAT1 enzyme was no less than 50%. In the assay on Male C57BL/6N mice, the inhibition in vivo at up to 10 mg/kg was no less than 60%.
On the same counts, the results for `O=C(O)C[C@H]1CC[C@H](OC(=O)N2CCc3cc(NC(=O)Nc4cccc(OC(F)F)c4)ccc3C2)CC1` [Example 51, trans-6-[3-(3-difluoromethoxy-phenyl)-ureido]-3,4-dihydro-1H-isoquinoline-2-carboxylic acid 4-carboxymethyl-cyclohexyl ester] are no less than 50% and no less than 60%.
In the same order, the values of `O=C(O)C[C@H]1CC[C@H](OC(=O)N2CCc3cc(NC(=O)Nc4cccc(OC(F)(F)F)c4)ccc3C2)CC1` [Example 52, trans-6-[3-(3-trifluoromethoxy-phenyl)-ureido]-3,4-dihydro-1H-isoquinoline-2-carboxylic acid 4-carboxymethyl-cyclohexyl ester] are no less than 50% and no less than 60%.
On the same counts, the results for `CCOc1cccc(NC(=O)Nc2ccc3c(c2)CCN(C(=O)O[C@H]2CC[C@H](CC(=O)O)CC2)C3)c1C` [Example 53, trans-6-[3-(3-ethoxy-2-methyl-phenyl)-ureido]-3,4-dihydro-1H-isoquinoline-2-carboxylic acid 4-carboxymethyl-cyclohexyl ester] are no less than 50% and no less than 60%.
Consider `CCOc1cc(NC(=O)Nc2ccc3c(c2)CCN(C(=O)O[C@H]2CC[C@H](CC(=O)O)CC2)C3)ccc1C` [Example 54, trans-6-[3-(3-ethoxy-4-methyl-phenyl)-ureido]-3,4-dihydro-1H-isoquinoline-2-carboxylic acid 4-carboxymethyl-cyclohexyl ester], for which, on DGAT1 enzyme, the inhibition at 0.05 µg/mL is no less than 50%. Besides, in the assay on Male C57BL/6N mice, the inhibition in vivo at up to 10 mg/kg is no less than 60%.
In the same order, the values of `CCOc1ccc(C)c(NC(=O)Nc2ccc3c(c2)CCN(C(=O)O[C@H]2CC[C@H](CC(=O)O)CC2)C3)c1` [Example 55, trans-6-[3-(5-ethoxy-2-methyl-phenyl)-ureido]-3,4-dihydro-1H-isoquinoline-2-carboxylic acid 4-carboxymethyl-cyclohexyl ester] are no less than 50% and no less than 60%.
`COc1cc(F)cc(NC(=O)Nc2ccc3c(c2)CCN(C(=O)O[C@H]2CC[C@H](CC(=O)O)CC2)C3)c1` [Example 56, trans-6-[3-(3-fluoro-5-methoxy-phenyl)-ureido]-3,4-dihydro-1H-isoquinoline-2-carboxylic acid 4-carboxymethyl-cyclohexyl ester]: the inhibition at 0.05 µg/mL at DGAT1 enzyme is no less than 50%. Further, in the assay with Male C57BL/6N mice, the inhibition in vivo at up to 10 mg/kg was no less than 60%.
`O=C(O)C[C@H]1CC[C@H](OC(=O)N2CCc3cc(NC(=O)Nc4ccc(F)c(F)c4)ccc3C2)CC1` [Example 57, trans-6-[3-(3,4-difluoro-phenyl)-ureido]-3,4-dihydro-1H-isoquinoline-2-carboxylic acid 4-carboxymethyl-cyclohexyl ester]: the inhibition at 0.05 µg/mL on DGAT1 enzyme was no less than 50%. Further, in the assay on Male C57BL/6N mice, the inhibition in vivo at up to 10 mg/kg is no less than 60%.
Turning to `COc1cc(NC(=O)Nc2ccc3c(c2)CCN(C(=O)O[C@H]2CC[C@H](CC(=O)O)CC2)C3)ccc1F` [Example 58, trans-6-[3-(4-fluoro-3-methoxy-phenyl)-ureido]-3,4-dihydro-1H-isoquinoline-2-carboxylic acid 4-carboxymethyl-cyclohexyl ester], at DGAT1 enzyme, the inhibition at 0.05 µg/mL was no less than 50%. Moreover, the inhibition in vivo at up to 10 mg/kg in the assay with Male C57BL/6N mice was no less than 60%.
Turning to `CCOc1cc(NC(=O)Nc2ccc3c(c2)CCN(C(=O)O[C@H]2CC[C@H](CC(=O)O)CC2)C3)ccc1F` [Example 59, trans-6-[3-(3-ethoxy-4-fluoro-phenyl)-ureido]-3,4-dihydro-1H-isoquinoline-2-carboxylic acid 4-carboxymethyl-cyclohexyl ester], the inhibition at 0.05 µg/mL on DGAT1 enzyme was no less than 50%. Besides, the inhibition in vivo at up to 10 mg/kg in the assay with Male C57BL/6N mice was no less than 60%.
In the same order, the values of `COc1ccc(F)c(NC(=O)Nc2ccc3c(c2)CCN(C(=O)O[C@H]2CC[C@H](CC(=O)O)CC2)C3)c1` [Example 60, trans-6-[3-(2-fluoro-5-methoxy-phenyl)-ureido]-3,4-dihydro-1H-isoquinoline-2-carboxylic acid 4-carboxymethyl-cyclohexyl ester] are no less than 50% and no less than 60%.
Take `CCOc1ccc(F)c(NC(=O)Nc2ccc3c(c2)CCN(C(=O)O[C@H]2CC[C@H](CC(=O)O)CC2)C3)c1` [Example 61, trans-6-[3-(5-ethoxy-2-fluoro-phenyl)-ureido]-3,4-dihydro-1H-isoquinoline-2-carboxylic acid 4-carboxymethyl-cyclohexyl ester]: the inhibition at 0.05 µg/mL at DGAT1 enzyme is no less than 50%. Besides, the inhibition in vivo at up to 10 mg/kg in the assay on Male C57BL/6N mice was no less than 60%.
On to `CSc1ccc(NC(=O)Nc2ccc3c(c2)CCN(C(=O)O[C@H]2CC[C@H](CC(=O)O)CC2)C3)cc1` [Example 62, trans-6-[3-(4-methylsulfanyl-phenyl)-ureido]-3,4-dihydro-1H-isoquinoline-2-carboxylic acid 4-carboxymethyl-cyclohexyl ester], for which, at DGAT1 enzyme, the inhibition at 0.05 µg/mL is no less than 50%. The inhibition in vivo at up to 10 mg/kg in the assay with Male C57BL/6N mice was no less than 60%.
Consider `CSc1cccc(NC(=O)Nc2ccc3c(c2)CCN(C(=O)O[C@H]2CC[C@H](CC(=O)O)CC2)C3)c1` [Example 64, trans-6-[3-(3-methylsulfanyl-phenyl)-ureido]-3,4-dihydro-1H-isoquinoline-2-carboxylic acid 4-carboxymethyl-cyclohexyl ester], for which the inhibition at 0.05 µg/mL at DGAT1 enzyme was no less than 50%. For the same molecule, the inhibition in vivo at up to 10 mg/kg in the assay on Male C57BL/6N mice is no less than 60%.
On the same counts, the results for `O=C(O)C[C@H]1CC[C@H](OC(=O)N2CCc3cc(NC(=O)Nc4cccc(C(F)(F)F)c4)ccc3C2)CC1` [Example 66, trans-6-[3-(3-trifluoromethyl-phenyl)-ureido]-3,4-dihydro-1H-isoquinoline-2-carboxylic acid 4-carboxymethyl-cyclohexyl ester] are no less than 50% and no less than 60%.
In the same order, the values of `O=C(O)C[C@H]1CC[C@H](OC(=O)N2CCc3cc(NC(=O)Nc4cccc(F)c4)ccc3C2)CC1` [Example 67, trans-6-[3-(3-fluoro-phenyl)-ureido]-3,4-dihydro-1H-isoquinoline-2-carboxylic acid 4-carboxymethyl-cyclohexyl ester] are no less than 50% and no less than 60%.
In the same order, the values of `Cc1cccc(NC(=O)Nc2ccc3c(c2)CCN(C(=O)O[C@H]2CC[C@H](CC(=O)O)CC2)C3)c1` [Example 68, trans-6-(3-m-tolyl-ureido)-3,4-dihydro-1H-isoquinoline-2-carboxylic acid 4-carboxymethyl-cyclohexyl ester] are no less than 50% and no less than 60%.

Values taken from patent US8735425B2, “Tetrahydroisoquinoline derivative” (Daiichi Sankyo Company, Limited, priority 2008, dated 2014).
